Experimental data taken from patent US20260232851A1, “METHODS FOR THE DETECTION AND DIAGNOSIS OF CANCERS ASSOCIATED WITH OVEREXPRESSION OF PSMA RECEPTOR” (CLARITY PHARMACEUTICALS LIMITED, priority 2023, published 2026).
Entries after “also recorded” stand apart in the source; their conditions may differ. Marks after values point to notes of the source that are not given here.

Legend:
PSMA receptor [1] = molecular target: T1, PSMA receptor (Homo sapiens, UniProt Q04609); experiment: Blinded central reader detection of primary prostate cancer and lesions on PET/CT; format: in vivo; conditions: for % TPR (True Positive Rate), detection of primary prostate cancer: 200 MBq ^64Cu-Sar-bisPSMA; for % FNR (False Negative Rate): indeterminate results analysed as negative; for Detection of secondary lesion in lymph node by PET/CT (FIG. 3): same subject imaged with both tracers
T1 construct: localises at sites that overexpress the PSMA receptor and are indicative of a cancer; from tissue; host or cells: Primary prostate cancer and metastatic lesions (lymph node, bone, prostatic bed) in living patients
Method: Patients with untreated, histopathology-proven, intermediate- to high-risk PC, planned for radical prostatectomy underwent ^68Ga-PSMA-11 PET/CT per institutional practice and were subsequently allocated to 1 out of 3 dose cohorts (1:1:3) to receive either 100 MBq, 150 MBq or 200 MBq of ^64Cu-SAR-bisPSMA, respectively. The specified dose of ^64Cu-Sar-bisPSMA was administered to each patient as a single bolus IV injection. […] PET/CT scans at other times after injection of the compound were acquired as required.
Patients were scanned using the standard clinical whole-body PET/CT acquisition protocol defined for each clinical site and in accordance with the Image Acquisition Manual, which contains details of scan acquisition, processing parameters and quality assurance procedures. The same scanner was used for each visit. Typical imaging acquisition parameters are below:
Two independent, blinded, central readers assessed the detection of primary PC on the 200 MBq ^64Cu-SAR-bisPSMA PET/CTs as the primary endpoint. To compare the intensity of lesions on ^68Ga-PSMA-11 and ^64Cu-SAR-bisPSMA PET, both readers determined the SUVs (SUVmax, SUVmean) and tumour-to-background ratio (ratio of lesion SUVmax and background SUVmean) in up to 5 concordant lesions between ^68Ga-PSMA-11 and ^64Cu-SAR-bisPSMA PET/CT as an exploratory endpoint.
Table 5 compares the number of positive, negative and indeterminate images as assessed by each reader. Reader 1 detected primary prostate cancer in 100% of patients to whom 200 MBq of ^64Cu-Sar-bisPSMA was administered, while Reader 2 detected 85.7% of patients. This is in contrast to 77.8% and 83.3%, respectively, when ^68Ga-PSMA-11 was administered.
The number of lesions detected by each reader with imaging by either ^64Cu-Sar-bisPSMA or ^68Ga-PSMA-11 was evaluated. For both readers, the total number of lesions, the mean and median number of lesions detected as a result of imaging by ^64Cu-Sar-bisPSMA was higher when compared with imaging by ^68Ga-PSMA-11, with the difference in these values being statistically significant.

LNCap tumor = experiment: Ex vivo tumor uptake in LNCap tumor bearing NSG mice
Excerpt: Ex vivo tumor uptake expressed as percentage injected activitiy per gram of tissue (% lAg) (mean±/−SEM, n=3/group) in LNCap tumor bearing NSG mice following injection of either monomeric [^64Cu]Cu-SarPSMA (2 MBq, 0.9 nmol of peptide) or dimeric [^64Cu]Cu-Sar-bisPSMA (2 MBq, 0.2 nmol of peptide).

PSMA receptor [2] = molecular target: T1, PSMA receptor; experiment: Same-day (Day 0) versus next-day (Day 1) PET imaging of patients; format: in vivo
[3] = Reader 1, 200 MBq cohort, scans/evaluable scans
[4] = Reader 2, 200 MBq cohort, 4 ^64Cu scans excluded as non-evaluable
[5] = next-day imaging, Day 1, same subject

T1 sequence (Q04609 whole entry): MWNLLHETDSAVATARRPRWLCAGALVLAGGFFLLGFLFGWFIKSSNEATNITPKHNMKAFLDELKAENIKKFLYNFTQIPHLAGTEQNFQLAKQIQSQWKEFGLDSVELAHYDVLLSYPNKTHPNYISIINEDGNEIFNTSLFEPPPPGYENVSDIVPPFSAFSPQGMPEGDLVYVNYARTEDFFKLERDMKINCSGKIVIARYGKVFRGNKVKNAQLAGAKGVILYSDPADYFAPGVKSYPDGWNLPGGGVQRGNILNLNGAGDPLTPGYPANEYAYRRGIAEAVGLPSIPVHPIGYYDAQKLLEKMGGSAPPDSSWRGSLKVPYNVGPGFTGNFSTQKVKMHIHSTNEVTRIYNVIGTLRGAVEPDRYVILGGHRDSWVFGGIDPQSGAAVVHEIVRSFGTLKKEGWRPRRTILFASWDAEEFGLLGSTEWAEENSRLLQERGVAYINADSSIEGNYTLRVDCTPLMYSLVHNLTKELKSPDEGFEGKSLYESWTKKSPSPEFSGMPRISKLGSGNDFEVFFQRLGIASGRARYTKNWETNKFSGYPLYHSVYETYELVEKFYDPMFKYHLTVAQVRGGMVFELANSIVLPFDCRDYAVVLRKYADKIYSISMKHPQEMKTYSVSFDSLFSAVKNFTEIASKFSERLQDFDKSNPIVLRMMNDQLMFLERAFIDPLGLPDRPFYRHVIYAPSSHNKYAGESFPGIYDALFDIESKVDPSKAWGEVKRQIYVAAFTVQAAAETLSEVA

Sar-bisPSMA [^64Cu-SAR-bisPSMA]
Mean Difference in number of lesions (^64Cu − ^68Ga) (PSMA receptor [1]; 200 MBq Cohort, Reader 1): 0.28 | Mean Number of Lesions per Participant (PSMA receptor [1]; 200 MBq Cohort, Reader 1): 2.3 | Median Difference in number of lesions (^64Cu − ^68Ga) (PSMA receptor [1]; 200 MBq Cohort, Reader 1): 0.0 | Median Number of Lesions per Participant (PSMA receptor [1]; 200 MBq Cohort, Reader 1): 2 | Total # of Lesions Detected (all participants) (PSMA receptor [1]; 200 MBq Cohort, Reader 1): 41 | Mean Difference in number of lesions (^64Cu − ^68Ga) (PSMA receptor [1]; 200 MBq Cohort, Reader 2): 0.64 | Mean Number of Lesions per Participant (PSMA receptor [1]; 200 MBq Cohort, Reader 2): 2.2 | Median Difference in number of lesions (^64Cu − ^68Ga) (PSMA receptor [1]; 200 MBq Cohort, Reader 2): 0.0 | Median Number of Lesions per Participant (PSMA receptor [1]; 200 MBq Cohort, Reader 2): 2 | Total # of Lesions Detected (all participants) (PSMA receptor [1]; 200 MBq Cohort, Reader 2): 31 | Mean Difference in number of lesions (^64Cu − ^68Ga) (PSMA receptor [1]; All Cohorts, Reader 1 (N = 29)): 0.41 | Mean Number of Lesions per Participant (PSMA receptor [1]; All Cohorts, Reader 1 (N = 29)): 2.2 | Median Difference in number of lesions (^64Cu − ^68Ga) (PSMA receptor [1]; All Cohorts, Reader 1 (N = 29)): 0.0 | Median Number of Lesions per Participant (PSMA receptor [1]; All Cohorts, Reader 1 (N = 29)): 2 | Total # of Lesions Detected (all participants) (PSMA receptor [1]; All Cohorts, Reader 1 (N = 29)): 63 | Mean Difference in number of lesions (^64Cu − ^68Ga) (PSMA receptor [1]; All Cohorts, Reader 2 (N = 17)): 0.52 | Mean Number of Lesions per Participant (PSMA receptor [1]; All Cohorts, Reader 2 (N = 17)): 2 | Median Difference in number of lesions (^64Cu − ^68Ga) (PSMA receptor [1]; All Cohorts, Reader 2 (N = 17)): 0.0 | Median Number of Lesions per Participant (PSMA receptor [1]; All Cohorts, Reader 2 (N = 17)): 4 | Total # of Lesions Detected (all participants) (PSMA receptor [1]; All Cohorts, Reader 2 (N = 17)): 34 | % TPR (True Positive Rate), detection of primary prostate cancer (PSMA receptor [1]; Reader 1): 100.0% | Positive images (primary prostate cancer) (PSMA receptor [1]; Reader 1, 200 MBq ^64Cu-Sar-bisPSMA cohort, scans/evaluable scans): 18/18 | % TPR (True Positive Rate), detection of primary prostate cancer (PSMA receptor [1]; Reader 1, listed as 64Cu-Sar-bisPSMA): 100% | Indeterminate images (PSMA receptor [1]; [3]): 0/18 | Negative images (PSMA receptor [1]; [3]): 0/18 | % FNR (False Negative Rate) (PSMA receptor [1]; Reader 1): 0.0% | % TPR (True Positive Rate), detection of primary prostate cancer (PSMA receptor [1]; Reader 2): 85.7% | Indeterminate images (PSMA receptor [1]; [4]): 2/14* | Negative images (PSMA receptor [1]; [4]): 0/14* | Positive images (primary prostate cancer) (PSMA receptor [1]; [4]): 12/14* | % FNR (False Negative Rate) (PSMA receptor [1]; Reader 2): 14.3% | Total, mean and median number of lesions detected compared with ^68Ga-PSMA-11 (PSMA receptor [1]; both readers): higher | Detection of secondary lesion in lymph node by PET/CT (FIG. 3) (PSMA receptor [1]): Detection of a secondary lesion | Detection of secondary lesion in lymph node by PET/CT (FIG. 3) (PSMA receptor [1]; listed as compound of Formula (I) complexed with ^64Cu): clearly identifies a lesion | Amount retained at the tumor site relative to ^64Cu-SarPSMA (FIG. 1) (LNCap tumor; 6 and 24 hours after administration): far greater | Ex vivo tumor uptake relative to monomeric ^64Cu-Sar-PSMA (FIG. 1) (LNCap tumor; 1 hour after administration, 2 MBq, n=3/group): approximately double | Uptake and retention at tumors, dimer versus monomer (FIG. 1) (LNCap tumor; mouse, in vivo): higher uptake and retention | Increase of SUVmax, next-day compared to same-day imaging (FIG. 7) (PSMA receptor [2]; Day 1 vs Day 0): more than double | SUVmax Day 1 relative to previous day (FIG. 9) (PSMA receptor [2]; Day 1 vs same day): 4 times | Average SUVmax for the bone and pelvic lymph node lesions (FIG. 11B) (PSMA receptor [2]; following day imaging, same patient): 20.0 | Lesion visualisation on PET (words) (PSMA receptor [2]; next-day imaging (Day 1), FIGS. 8-12, listed as 64Cu Sar-bisPSMA): clearly identified a lesion | Lesion visualisation on PET (words) (PSMA receptor [2]; next-day imaging (Day 1), FIGS. 8-12, listed as 64Cu-Sar-bisPSMA): identified by three readers; also recorded: more positive lesions; also recorded: only visualised with imaging on the following day; also recorded: additional positive lesions | Lesion visualisation on PET (words) (PSMA receptor [2]; next-day imaging (Day 1), FIGS. 8-12, listed as compound of Formula (I) complexed with ^64Cu): successfully identifies a lesion | SUVmax of lesion (FIG. 9C) (PSMA receptor [2]; [5]): 17.5 | SUVmax of positive pelvic lymph node lesion (FIG. 7) (PSMA receptor [2]; [5]): 50.4 | Average SUVmax for the bone and pelvic lymph node lesions (FIG. 11A) (PSMA receptor [2]; same day imaging, one patient): 9.8 | Lesion visualisation on PET (words) (PSMA receptor [2]; same-day imaging (Day 0), FIGS. 8-9, listed as 64Cu Sar-bisPSMA): negative | Lesion visualisation on PET (words) (PSMA receptor [2]; same-day imaging (Day 0), FIGS. 8-9, listed as 64Cu-Sar-bisPSMA): less apparent; also recorded: not visualised | Lesion visualisation on PET (words) (PSMA receptor [2]; same-day imaging (Day 0), FIGS. 8-9, listed as compound of Formula (I) complexed with ^64Cu): does not clearly visualise a lesion | SUVmax of positive pelvic lymph node lesion (FIG. 7) (PSMA receptor [2]; same-day imaging, Day 0, one subject): 20.8 | SUVmax of lesion (FIG. 9B) (PSMA receptor [2]; same-day imaging, same subject): 4.3
